Results published in patent EP4623911A1, “PI4KB INHIBITORS FOR THE TREATMENT OF FATTY LIVER DISEASE” (ETH Zurich, priority 2024, dated 2025).

Assays:
ATGL = ATGL protein quantification via immunoblot in HEK293T cell type; assay type: cell-based, human; details: Golgi Ptdlns4P depleted by UCB9608, then glucose deprivation
Protocol: HEK293T and HEK293-AAV cell types were cultured in DMEM (high glucose) with 10% FBS and 1% Pen/Strep. HEK293-AAV cell type was used for imaging whereas HEK293T cells were adopted for the rest of the work. To overexpress EGFP-P4M, EGFP-SACM1L, EGFP-SACM1LK2A, ATGL-FLAG, ATGL-HA, ATGLK0-HA and FBXW8-FLAG in the HEK cells, Lipofectamine 2000 was used to deliver these plasmids for 24 h expression at 60-80% cell confluence according to the manufacturer's instructions, followed by specific treatments based on experimental designs. To image LDs abundance, HEK293-AAV cell type was induced by 200 µM oleic acid (OA, 01008 from Sigma) conjugated to bovine serum albumin (BSA, A6003 from Sigma) to generate LDs for 24 h prior to 4% PFA fixation. Afterwards, cells were stained by BODIPY 493/503 and Hoechst 33342 for LDs and nuclei labelling, respectively. In other conditions, HEK cells were not treated with OA containing medium. […]
(§1) Adipose depots, liver pieces, differentiated iBAs, HepG2, HEK293T and HEK293-AAV cell types were homogenized in RIPA buffer (50 mM Tris-HCl pH 7.4, 150 mM NaCl, 2 mM EDTA, 1.0% Triton X100, 0.5% sodium deoxycholate) with protease inhibitors (Complete, Roche) and phosphatase inhibitors (Halt phosphatase inhibitor cocktail, ThermoFisher). […] The concentration of WCE was determined by DC Protein Assay (Bio-Rad). […]

[1] = system: mouse model of hepatic steatosis; test: HFD-induced hepatic steatosis (NAFLD) mouse model treated with UCB9608; assay type: in vivo, mice
Protocol: Male mice were used for NAFLD induction via feeding on HFD. ROSA26-LSL-spCas9 mice were injected with AAV-U6-Cu/7 gRNAs-TBG-Cre and AAV-U6-Fbxw8 gRNAs-TBG-Cre virus pools at a dose of 3×10^11 genome copies/mouse and fed in HFD for 12 weeks and livers were harvested after 6 hours fasting. To study PI4KB in NAFLD progression, male ROSA26-LSL-spCas9 mice were fed in HFD for 12 weeks to induce fatty liver before induction of hepatocyte specific depletion of PI4KB via intravenous administration of AAV8. After another 8 weeks, mice were dissected to harvest liver after 6 hours fasting. Likewise, male C57BL/6N wild-type mice and liver specific Atgl knockout mice (AtglLKO) were challenged with HFD for 12 weeks to induce fatty liver prior to administration of UCB9608 mixed in HFD (5 mg/kg) for another 8 weeks. Then the mice were dissected to harvest tissues and sample blood after 6 hours fasting Atgl floxed mice (The Jackson Lab strain) were crossed with Albumin-Cre (The Jackson Lab strain) and Adip-CreERT2 strains to obtain Alb-Atgfl^fl/fl and AdipcreERT2-Atgl^fl/fl mice (Sitnick,M.T. et al, Diabetes 62, (2013)), which deplete ATGL protein in the liver and the adipose depots (induced after tamoxifen gavage), respectively. […]
as §1
Plasma collected from mice under different conditions was used to determine levels of lipolysis and liver injury. FFA levels were measured via NEFA assay kit (Wako NEFA kit). TG levels were determined via TG assay kit (Roche Trig/GB reagent). […] The absorbance was monitored using Synergy Gen5 Platereader.
Weight of liver pieces (50-100 mg) was recorded before homogenization by 1 mL isopropanol per 50 mg tissue. […]

COc1ccc(NC(=O)N2CCN(c3nc(N)nc4c3cnn4C)[C@@H](C)C2)c(C)c1 [UCB9608]
ATGL response to glucose deprivation (ATGL): loss of ATGL regulation | hepatic steatosis (hepatic TG levels) ([1]; HFD 12 weeks, then UCB9608 in HFD (5 mg/kg) 8 weeks, requires ATGL in the liver): substantially attenuated | ATGL protein levels in the iBAT, gWAT and liver ([1]; UCB9608- vs DMSO-treated HFD mice): significantly greater | plasma FFA levels ([1]; wild-type mice, HFD 12 weeks, then UCB9608 in HFD (5 mg/kg) 8 weeks, vs DMSO): significantly increased
